Measured values taken from article PMC4549712, “Inhibition of human GLUT1 and GLUT5 by plant carbohydrate products; insights into transport specificity” (Scientific Reports, 2015).
“Also recorded” adds a separate entry of the source.

How the values were obtained:
human GLUT1 = target: T1, human GLUT1 (Homo sapiens, UniProt P11166); test: entrance counter-flow transport assay, GLUT1-mediated glucose transport in proteoliposomes; assay type: biochemical; conditions: for inhibition of GLUT1 glucose transport activity: 20 mM
T1 construct: Full length DNA was subcloned into pFastBac1 (Life Technologies) vector with a N-terminal hexahistidine tag; hexahistidine (thrombin-cleavable) (N, cleaved yes); made in house; host or cells: Sf21 insect cells (baculovirus, pFastBac1)
T1 sequence (P11166 1-492): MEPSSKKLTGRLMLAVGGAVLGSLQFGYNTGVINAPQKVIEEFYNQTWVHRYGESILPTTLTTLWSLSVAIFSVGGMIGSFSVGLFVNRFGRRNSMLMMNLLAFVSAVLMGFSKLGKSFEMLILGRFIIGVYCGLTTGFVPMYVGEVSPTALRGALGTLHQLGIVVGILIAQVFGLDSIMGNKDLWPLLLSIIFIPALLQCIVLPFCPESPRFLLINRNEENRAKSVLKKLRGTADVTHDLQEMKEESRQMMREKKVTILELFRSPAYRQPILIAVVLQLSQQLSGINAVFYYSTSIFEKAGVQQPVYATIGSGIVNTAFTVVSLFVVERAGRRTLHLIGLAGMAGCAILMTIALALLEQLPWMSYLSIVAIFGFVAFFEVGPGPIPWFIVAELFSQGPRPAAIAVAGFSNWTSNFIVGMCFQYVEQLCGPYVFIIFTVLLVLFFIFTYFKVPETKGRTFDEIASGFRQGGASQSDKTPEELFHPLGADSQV
Experimental: Human GLUT1 and GLUT5 were expressed recombinantly in insect cell culture. The purified proteins were reconstituted into proteoliposomes. To measure the inhibition of GLUT1 or GLUT5 transport activity we used entrance counter-flow transport assay. In GLUT1 and GLUT5 proteoliposomes, substrate transport reached steady state after one minute incubation at room temperature.
(§1) Proteoliposomes were generated according to the protocol from[30] with minor modifications. Liposomes were produced from a 95/5% (w/w) mix of soy phosphatidylcholine and cholesterol (Avanti Polar Lipids). Briefly, hexane-washed and vacuum-dried lipids were resuspended to 20 mg/ml in 100 mM KPi (pH 7.5), and then subjected to 11 freeze-and-thaw cycles in liquid nitrogen and room temperature water. The lipid mixture was extruded through a 0.1 μm polycarbonate filter. Prepared liposomes were destabilized with 4 mM Triton X-100 and mixed with purified protein in a 100:1 (w/w) ratio in 100 mM KPi (pH 7.5) 20% (v/v) glycerol, 200 mM (glucose or fructose). Detergent was removed by several additions of SM2 BioBeads (BioRad) and incubated overnight at 4 °C. After filtering out the BioBeads, proteoliposomes were diluted with 100 mM KPi (pH 7.5) 200 mM (glucose or fructose), and then collected by ultracentrifugation, at 200,000 × g and 4 °C, for 1 hour. The proteoliposomes pellet was resuspended in the above buffer so that O.D.600nm was ~30.
To measure hexose transport, we utilized entrance counter-flow assay. Transport was performed in a volume of 100 μL of 100 mM KPi (pH 7.5) buffer containing radioactive ^14C-hexose (4 μM fructose or 5 μM glucose) with inhibitors added before initiation of transport. Radioactive substrate uptake in GLUT1 and GLUT5 (wild-type or mutant) proteoliposomes was constant between 1 and 2 mins. The reaction was started by the addition of 3 μL concentrated proteoliposomes to the above solution and incubated at room temperature; the transport was stopped after one minute by addition of ice-chilled quench buffer [100 mM KPi (pH 5.5) and 100 mM LiCl]. The solution was filtered through a 0.4 μm pore size cellulose nitrate membrane filter (Whatman), and the filter was washed three times with quench buffer. The membrane filter was placed into a vial filled with BioSafe II scintillation liquid (Research Products International Corp.), and radioactivity was quantified with LS 6500 scintillation counter (Beckman). […] The transport assays were unaffected by 5% DMSO. Data is presented as relative activity normalized to radioactivity of no inhibitor added as 100% and empty proteoliposomes as 0%. Kinetic parameters were fitted by nonlinear algorithm plots using Prism (GraphPad Software).

human GLUT5 = target: T2, human GLUT5 (Homo sapiens, UniProt P22732); test: entrance counter-flow transport assay, GLUT5-mediated fructose transport in proteoliposomes; assay type: biochemical; conditions: added at 20 mM
T2 construct: Full length DNA was subcloned into pFastBac1 (Life Technologies) vector with a N-terminal hexahistidine tag; hexahistidine (thrombin-cleavable) (N, cleaved yes); made in house; host or cells: Sf21 insect cells (baculovirus, pFastBac1)
T2 sequence (P22732 1-501): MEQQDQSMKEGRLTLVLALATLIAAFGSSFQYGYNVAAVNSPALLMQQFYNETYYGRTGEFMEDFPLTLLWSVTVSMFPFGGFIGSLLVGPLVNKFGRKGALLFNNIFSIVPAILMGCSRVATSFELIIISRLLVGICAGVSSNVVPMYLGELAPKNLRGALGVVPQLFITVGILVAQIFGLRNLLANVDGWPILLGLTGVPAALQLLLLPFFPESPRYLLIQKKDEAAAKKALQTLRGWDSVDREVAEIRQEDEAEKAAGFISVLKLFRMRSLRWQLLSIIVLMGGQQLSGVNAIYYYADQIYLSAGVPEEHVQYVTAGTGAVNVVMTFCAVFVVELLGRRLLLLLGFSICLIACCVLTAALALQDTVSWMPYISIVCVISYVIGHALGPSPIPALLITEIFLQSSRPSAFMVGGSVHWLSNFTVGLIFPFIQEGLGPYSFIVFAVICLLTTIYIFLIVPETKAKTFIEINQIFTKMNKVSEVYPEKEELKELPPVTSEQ
Text: Human GLUT1 and GLUT5 were expressed recombinantly in insect cell culture. The purified proteins were reconstituted into proteoliposomes. To measure the inhibition of GLUT1 or GLUT5 transport activity we used entrance counter-flow transport assay.
as §1
To measure hexose transport, we utilized entrance counter-flow assay. Transport was performed in a volume of 100 μL of 100 mM KPi (pH 7.5) buffer containing radioactive ^14C-hexose (4 μM fructose or 5 μM glucose) with inhibitors added before initiation of transport. […] The reaction was started by the addition of 3 μL concentrated proteoliposomes to the above solution and incubated at room temperature; the transport was stopped after one minute by addition of ice-chilled quench buffer [100 mM KPi (pH 5.5) and 100 mM LiCl]. The solution was filtered through a 0.4 μm pore size cellulose nitrate membrane filter (Whatman), and the filter was washed three times with quench buffer. The membrane filter was placed into a vial filled with BioSafe II scintillation liquid (Research Products International Corp.), and radioactivity was quantified with LS 6500 scintillation counter (Beckman). […] Data is presented as relative activity normalized to radioactivity of no inhibitor added as 100% and empty proteoliposomes as 0%. Kinetic parameters were fitted by nonlinear algorithm plots using Prism (GraphPad Software).

GLUT5 [1] = test system: GLUT5; set-up: method as in PMID 9166863; conditions: read-out: GLUT5 Km for fructose; cited from earlier work
human GLUT4 = test system: human GLUT4; set-up: method as in PMID 1716731; conditions: cited from earlier work
GLUT5 [2] = test system: GLUT5; set-up: method as in PMID 9166863; conditions: cited from earlier work
[3] = test system: glucose/H+ symporter GlcPSe; set-up: method as in PMID 24127585; conditions: cited from earlier work
GLUT1 [4] = test system: GLUT1; set-up: method as in PMID 9286080; conditions: cited from earlier work
human GLUT2 = test system: human GLUT2; set-up: method as in PMID 1716731; conditions: cited from earlier work
[5] = set-up: method as in PMID 22133440; conditions: cited from earlier work
[6] = set-up: method as in PMID 22133440; conditions: cited from earlier work; remark: listed apart in the source
GLUT1 [7] = conditions: read-out: GLUT1 Km for glucose; cited from earlier work

Compound: maltohexaose
- inhibition of GLUT1 glucose transport activity (human GLUT1): not inhibited
- inhibition of GLUT5 fructose transport activity (human GLUT5): neither maltose nor maltohexaose (6 glucose units) inhibited GLUT5; also recorded: neither maltohexaose nor astragalin alone inhibit GLUT5

Compound: O=C(CO)[C@@H](O)[C@H](O)[C@H](O)CO [fructose]
- Km (GLUT5 [1]): ~10 mM

Compound: C=C1[C@@H](C)[C@H]2[C@H](Cc3ccccc3)NC(=O)[C@]23OC(=O)/C=C/[C@H](O)CCC[C@@H](C)C/C=C/[C@H]3[C@@H]1O [cytochalasin B]
- inhibition of human GLUT4 (human GLUT4): inhibit
- inhibition of GLUT5 (GLUT5 [2]): not GLUT5
- inhibition of bacterial glucose/H+ symporter GlcPSe [3]: inhibit
- inhibition of GLUT1 activity (GLUT1 [4]): inhibitors
- inhibition of human GLUT2 (human GLUT2): inhibit

Compound: O=c1c(O[C@@H]2O[C@H](CO)[C@@H](O)[C@H](O)[C@H]2O)c(-c2ccc(O)cc2)oc2cc(O)cc(O)c12 [astragalin]
- solubility in water [5]: insoluble in water
- inhibition of GLUT5 fructose transport activity (human GLUT5): neither maltohexaose nor astragalin alone inhibit GLUT5

Compound: C=C[C@@]1(C)CC(=O)[C@]2(O)[C@@]3(C)[C@@H](O)CCC(C)(C)[C@@H]3[C@H](O)[C@H](OC(C)=O)[C@@]2(C)O1 [forskolin]
- inhibition of human GLUT4 (human GLUT4): inhibit
- inhibition of GLUT5 (GLUT5 [2]): not GLUT5
- inhibition of bacterial glucose/H+ symporter GlcPSe [3]: inhibit
- inhibition of GLUT1 activity (GLUT1 [4]): inhibitors
- inhibition of human GLUT2 (human GLUT2): inhibit

Compound: Astragalin-6-glucoside [Ast6G]
- inhibition of GLUT1 glucose transport activity (human GLUT1): not inhibited; also recorded: did not inhibit
- redox scavenging properties compared to astragalin [6]: increased redox scavenging properties

Compound: OC[C@H]1O[C@H](O[C@H]2[C@H](O)[C@@H](O)C(O)O[C@@H]2CO)[C@H](O)[C@@H](O)[C@@H]1O (mixture of isomers) [maltose]
- GLUT1 transport activity (relative glucose transport) (human GLUT1; 20 mM compound): ~ 80%
- inhibition of GLUT5 fructose transport activity (human GLUT5): neither maltose nor maltohexaose (6 glucose units) inhibited GLUT5

Compound: OC[C@H]1OC(O)[C@H](O)[C@@H](O)[C@@H]1O (some centres unmarked) [glucose]
- Km (GLUT1 [7]): ~3 mM
